Measurements from PubChem BioAssay (NCI).
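Where inhibition never reached the appropriate level, the endpoint shown equals the highest concentration tested. Otherwise, values were interpolated linearly from a five-concentration, 48-hour dose response in 96-well plates. GI50 marks 50% less growth. TGI marks complete inhibition of growth.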

Tests used:
Test in all cases: growth of human tumour cells (NCI), 48 h
[1] = tested on: SN12C renal
[2] = tested on: SK-MEL-2 melanoma
[3] = tested on: A498 renal
[4] = tested on: MOLT-4 leukemia
[5] = tested on: RXF 393 renal
[6] = tested on: SNB-75 CNS
[7] = tested on: RPMI-8226 leukemia
[8] = tested on: UACC-257 melanoma
[9] = tested on: 786-0 renal
[10] = tested on: M14 melanoma
[11] = tested on: SK-OV-3 ovarian
[12] = tested on: NCI-H23 lung
[13] = tested on: UACC-62 melanoma
[14] = tested on: SK-MEL-28 melanoma
[15] = tested on: LOX IMVI melanoma
[16] = tested on: MDA-MB-231 breast
[17] = tested on: PC-3 prostate
[18] = tested on: CCRF-CEM leukemia
[19] = tested on: NCI/ADR-RES ovarian
[20] = tested on: HT29 colon
[21] = tested on: DU-145 prostate
[22] = tested on: OVCAR-8 ovarian
[23] = tested on: OVCAR-4 ovarian
[24] = tested on: NCI-H460 lung
[25] = tested on: UO-31 renal
[26] = tested on: HS 578T breast
[27] = tested on: EKVX NSCLC
[28] = tested on: NCI-H522 lung
[29] = tested on: HCT-116 colon
[30] = tested on: BT-549 breast
[31] = tested on: SF-295 CNS
[32] = tested on: KM12 colon
[33] = tested on: COLO 205 colon
[34] = tested on: HCC-2998 colon
[35] = tested on: TK-10 renal
[36] = tested on: HCT-15 colon
[37] = tested on: K-562 leukemia
[38] = tested on: HL-60(TB) leukemia
[39] = tested on: SF-539 CNS
[40] = tested on: IGROV1 ovarian
[41] = tested on: SW-620 colon
[42] = tested on: OVCAR-5 ovarian
[43] = tested on: U251 CNS
[44] = tested on: ACHN renal
[45] = tested on: A549 NSCLC
[46] = tested on: SK-MEL-5 melanoma
[47] = tested on: SNB-19 CNS
[48] = tested on: SF-268 CNS
[49] = tested on: T-47D breast
[50] = tested on: CAKI-1 renal
[51] = tested on: MDA-MB-435
[52] = tested on: HOP-92 NSCLC
[53] = tested on: SR leukemia
[54] = tested on: OVCAR-3 ovarian
[55] = tested on: HOP-62 NSCLC

C=C1CC[C@@H]2[C@](C)(COC(C)=O)[C@H](OC(C)=O)CC[C@@]2(C)[C@@H]1CC(Nc1ccc(S(=O)(=O)Nc2cc(C)on2)cc1)C1=CCOC1=O (stereo not given in full)
GI50 [1]: 1.73 µM | TGI [1]: 4.52 µM | GI50 [2]: 2.04 µM | TGI [2]: 4.4 µM | GI50 [3]: 7.69 µM | TGI [3]: 20.3 µM | GI50 [4]: 2.12 µM | TGI [4]: 6.39 µM | GI50 [5]: 2.05 µM | TGI [5]: 3.84 µM | GI50 [6]: 2.03 µM | TGI [6]: 11.5 µM | GI50 [7]: 1.54 µM | TGI [7]: 5.43 µM | GI50 [8]: 2.95 µM | TGI [8]: 6.19 µM | GI50 [9]: 1.96 µM | TGI [9]: 3.66 µM | GI50 [10]: 1.69 µM | TGI [10]: 4.17 µM | GI50 [11]: 11 µM | TGI [11]: 23.1 µM | GI50 [12]: 2.31 µM | TGI [12]: 5.9 µM | GI50 [13]: 2.13 µM | TGI [13]: 7.06 µM | GI50 [14]: 2.02 µM | TGI [14]: 4.31 µM | GI50 [15]: 1.18 µM | TGI [15]: 2.54 µM | GI50 [16]: 2.22 µM | TGI [16]: 5.11 µM | GI50 [17]: 1.98 µM | TGI [17]: 4.31 µM | GI50 [18]: 0.477 µM | TGI [18]: 2.71 µM | GI50 [19]: 2.41 µM | TGI [19]: 12 µM | GI50 [20]: 1.58 µM | TGI [20]: 3.09 µM | GI50 [21]: 2.43 µM | TGI [21]: 6.53 µM | GI50 [22]: 1.88 µM | TGI [22]: 4.3 µM | GI50 [23]: 2.91 µM | TGI [23]: 10.5 µM | GI50 [24]: 2.35 µM | TGI [24]: 5.7 µM | GI50 [25]: 1.69 µM | TGI [25]: 3.52 µM | GI50 [26]: 3.92 µM | TGI [26]: 26.7 µM | GI50 [27]: 11 µM | TGI [27]: 25.9 µM | GI50 [28]: 1.04 µM | TGI [28]: 2.42 µM | GI50 [29]: 1.12 µM | TGI [29]: 2.39 µM | GI50 [30]: 1.79 µM | TGI [30]: 3.47 µM | GI50 [31]: 8.13 µM | TGI [31]: 21 µM | GI50 [32]: 1.83 µM | TGI [32]: 3.69 µM | GI50 [33]: 1.97 µM | TGI [33]: 4.34 µM | GI50 [34]: 2.14 µM | TGI [34]: 4.05 µM | GI50 [35]: 3.04 µM | TGI [35]: 7.11 µM | GI50 [36]: 1.5 µM | TGI [36]: 3.83 µM | GI50 [37]: 1.57 µM | TGI [37]: 8.42 µM | GI50 [38]: 1.39 µM | TGI [38]: 3.69 µM | GI50 [39]: 1.59 µM | TGI [39]: 3.06 µM | GI50 [40]: 2.36 µM | TGI [40]: 6.51 µM | GI50 [41]: 1.32 µM | TGI [41]: 2.91 µM | GI50 [42]: 2.16 µM | TGI [42]: 4.05 µM | GI50 [43]: 1.89 µM | TGI [43]: 3.4 µM | GI50 [44]: 1.71 µM | TGI [44]: 3.48 µM | GI50 [45]: 4.75 µM | TGI [45]: 15.4 µM | GI50 [46]: 2.11 µM | TGI [46]: 4.65 µM | GI50 [47]: 3.12 µM | TGI [47]: 12.2 µM | GI50 [48]: 2.35 µM | TGI [48]: 6.11 µM | GI50 [49]: 2.8 µM | TGI [49]: 7.37 µM | GI50 [50]: 4.14 µM | TGI [50]: 14.7 µM | GI50 [51]: 1.74 µM | TGI [51]: 4.37 µM | GI50 [52]: 3.07 µM | TGI [52]: 8 µM | GI50 [53]: 0.375 µM | TGI [53]: 3.36 µM | GI50 [54]: 1.66 µM | TGI [54]: 3.09 µM | GI50 [55]: 8.88 µM | TGI [55]: 22.9 µM
